Laboratory results as given in US20130231346A1, “METHODS OF TREATING CANCER” (GLAXOSMITHKLINE INTELLECTUAL PROPERTY (NO.2) LIMITED, priority 2010, published 2013).

Assays:
Format in all cases: cell-based
[1] = system: H1299 NSCLC cells; test: Caspase 3/7 activation, H1299; parameters: key: −: lack of caspase 3/7 activation after 24 hours of compound treatment; ++: moderate; +++: strong; ++++: very strong; settings: H1299, KRAS^Q61H; BRG1 MUT, LKB1 WT, CDKN2A WT; 24 hours
Method: (§2) Inhibition of cell growth and induction of apoptosis were determined by CellTiter-Glo® and caspase 3/7 activation assays after 72 and 24 hours of treatment, respectively.

[2] = system: hematopoietic cancers from acute or chronic myeloid leukemia (AML or CML) origins; test: Cell proliferation assays, AML/CML lines; settings: in vitro
Source text: (§1) MEK proteins are a node in a certain extracellular signal-related kinase ERK pathway which is commonly hyper-activated In tumor cells. Oncogenic mutations in both B-raf and Ras signal through MEK1 and MEK2. In vitro, 80% of cell lines carrying activating mutations of B-Raf and 72% of Ras mutant cell lines were sensitive to N-{3-[3-cyclopropyl-5-(2-fluoro-4-iodo-phenylamino)-6,8-dimethyl-2,4,7-trioxo-3,4,6,7-tetrahydro-2H-pyrido[4,3-d]pyrimidin-1-yl]phenyl}acetamide, or a pharmaceutically acceptable salt in cell proliferation assays, and a majority (83% of hematopoietic cancers from acute or chronic myeloid leukemia (AML or CML, respectively) origins were also very sensitive.

[3] = system: H1792 NSCLC cells; test: Caspase 3/7 activation, H1792; parameters: key: −: lack of caspase 3/7 activation after 24 hours of compound treatment; ++: moderate; +++: strong; ++++: very strong; settings: H1792, KRAS^G12c; BRG1 WT, LKB1 WT, CDKN2A WT; 24 hours
Method: as §2

[4] = system: cell lines carrying activating mutations of B-Raf; test: Cell proliferation assays, B-Raf mutant cell lines; settings: in vitro
Source text: as §1

[5] = system: Calu6 NSCLC cells; test: Caspase 3/7 activation, Calu6; parameters: key: −: lack of caspase 3/7 activation after 24 hours of compound treatment; ++: moderate; +++: strong; ++++: very strong; settings: Calu6, KRAS^Q61K; BRG1 WT, LKB1 WT, CDKN2A WT; 24 hours
Method: as §2

[6] = system: Ras mutant cell lines; test: Cell proliferation assays, Ras mutant cell lines; settings: in vitro
Source text: as §1

[7] = system: H727 NSCLC cells; test: Caspase 3/7 activation, H727; parameters: key: −: lack of caspase 3/7 activation after 24 hours of compound treatment; ++: moderate; +++: strong; ++++: very strong; settings: H727, KRAS^G12V; BRG1 WT, LKB1 WT, CDKN2A WT; 24 hours
Method: as §2

[8] = system: Calu1 NSCLC cells; test: Caspase 3/7 activation, Calu1; parameters: key: −: lack of caspase 3/7 activation after 24 hours of compound treatment; ++: moderate; +++: strong; ++++: very strong; settings: Calu1, KRAS^G12c; BRG1 WT, LKB1 WT, CDKN2A WT; 24 hours
Method: (§3) A panel of 24 non-small cell lung carcinoma (NSCLC) cell lines harboring RAS mutations was analyzed for genomic alterations, gene expression profiling and protein phosphorylation in MAPK and PI3K pathways. Inhibition of cell growth and induction of apoptosis were determined by CellTiter-Glo® and caspase 3/7 activation assays after 72 and 24 hours of treatment, respectively.

[9] = system: H1573 NSCLC cells; test: Caspase 3/7 activation, H1573; parameters: key: −: lack of caspase 3/7 activation after 24 hours of compound treatment; ++: moderate; +++: strong; ++++: very strong; settings: H1573, KRAS^G12A; BRG1 MUT, LKB1 WT, CDKN2A WT; 24 hours
Method: as §3

[10] = system: RAS-mutant NSCLC cell lines; test: Induction of apoptosis (caspase 3/7 activation) in panel of RAS-mutant NSCLC cell lines; settings: Ras mut NSCLC cell lines, caspase 3/7 activation, 24 hours of treatment, trihydrate
Method: as §3

| Compound | Apoptosis Response (caspase 3/7 activation) [1] | Share of hematopoietic cancers very sensitive in cell proliferation assays [2] [%] | Apoptosis Response (caspase 3/7 activation) [3] | Share of cell lines sensitive in cell proliferation assays [4] [%] | Apoptosis Response (caspase 3/7 activation) [5] | Share of cell lines sensitive in cell proliferation assays [6] [%] | Apoptosis Response (caspase 3/7 activation) [7] | Apoptosis Response (caspase 3/7 activation) [8] | Apoptosis Response (caspase 3/7 activation) [9] | Response Rate (sensitivity/total lines tested), Cell Apoptosis (capsase 3/7) ([10]; listed as docetaxel) [%] | Response Rate (sensitivity/total lines tested), Cell Apoptosis (capsase 3/7) [10] |
| --- | --- | --- | --- | --- | --- | --- | --- | --- | --- | --- | --- |
| CC(=O)Nc1cccc(-n2c(=O)n(C3CC3)c(=O)c3c(Nc4ccc(I)cc4F)n(C)c(=O)c(C)c32)c1 [Compound A, N-{3-[3-cyclopropyl-5-(2-fluoro-4-iodo-phenylamino)-6,8-dimethyl-2,4,7-trioxo-3,4,6,7-tetrahydro-2H-pyrido[4,3-d]pyrimidin-1-yl]phenyl}acetamide] | − | 83 | ++ | 80 | ++ | 72 | ++ | − | − |  |  |
| CC(=O)O[C@@]12CO[C@@H]1C[C@H](O)[C@@]1(C)C(=O)[C@H](O)C3=C(C)[C@@H](OC(=O)[C@H](O)[C@@H](NC(=O)OC(C)(C)C)c4ccccc4)C[C@@](O)([C@@H](OC(=O)c4ccccc4)[C@H]21)C3(C)C [Docataxel, (2R,3S)—N-carboxy-3-phenylisoserine,N-tert-butyl ester, 13-ester with 5β-20-epoxy-1,2α,4,7β,10β,13α-hexahydroxytax-11-en-9-one 4-acetate 2-benzoate, trihydrate] | − |  | +++ |  | ++ |  | − | − | ++ | 42 | 42% (10/24) |
